Like-named read-outs stand apart in the source and are kept apart here.

What all share (assay type): in vivo
Test [1] relates to Diabrotica balteata (Corn Root Worm). The experiment in a line: Activity against Diabrotica balteata (corn root worm), maize sprouts sprayed. The note with it: 96 h, read-out: effect in at least one of the two categories (mortality or growth inhibition); for percent effect (mortality or growth inhibition) at 200 ppm: application rate 200 ppm, L2 larvae, 4 days after infestation. The procedure:
Example B1: Activity Against Diabrotica balteata (Corn Root Worm)
Maize sprouts placed onto an agar layer in 24-well microtiter plates were treated with aqueous test solutions prepared from 10,000 ppm DMSO stock solutions by spraying. After drying, the plates were infested with L2 larvae (6 to 10 per well). The samples were assessed for mortality and growth inhibition in comparison to untreated samples 4 days after infestation.

Test [2] relates to Plutella xylostella (Diamond Back Moth). The experiment in a line: Activity against Plutella xylostella (diamond back moth), artificial diet. The note with it: 192 h, read-out: effect in at least one of the two categories (mortality or growth inhibition); for percent effect (mortality or growth inhibition) at 200 ppm: application rate 200 ppm, eggs, 8 days after infestation. The procedure:
Example B3: Activity Against Plutella xylostella (Diamond Back Moth)
24-well microtiter plates with artificial diet were treated with aqueous test solutions prepared from 10,000 ppm DMSO stock solutions by pipetting. After drying, Plutella eggs were pipetted through a plastic stencil onto a gel blotting paper and the plate was closed with it. The samples were assessed for mortality and growth inhibition in comparison to untreated samples 8 days after infestation.

For test [3], the system named is Myzus persicae (Green Peach Aphid). The test is described as follows: Activity against Myzus persicae (green peach aphid), feeding/contact activity. The note with it: 144 h. As to the method:
Example B4: Activity Against Myzus persicae (Green Peach Aphid) Feeding/Contact Activity
Sunflower leaf discs were placed onto agar in a 24-well microtiter plate and sprayed with aqueous test solutions prepared from 10,000 ppm DMSO stock solutions. After drying, the leaf discs were infested with an aphid population of mixed ages. The samples were assessed for mortality 6 days after infestation.

In test [4] the test system is Spodoptera littoralis (Egyptian Cotton Leaf Worm). The test is described as follows: Activity against Spodoptera littoralis (Egyptian cotton leaf worm), cotton leaf discs. The settings on record: foliar, 72 h, read-out: control (mortality, anti-feedant effect or growth inhibition). As to the method:
Example B5: Activity Against Spodoptera littoralis (Egyptian Cotton Leaf Worm)
Cotton leaf discs were placed onto agar in 24-well microtiter plates and sprayed with aqueous test solutions prepared from 10,000 ppm DMSO stock solutions. After drying the leaf discs were infested with five L1 larvae. The samples were assessed for mortality, anti-feeding effect, and growth inhibition in comparison to untreated samples 3 days after infestation. Control of Spodoptera littoralis by a test sample is given when at least one of the categories mortality, anti-feedant effect, and growth inhibition is higher than the untreated sample.

[5] abbreviates: application rate 200 ppm, L1 larvae, 3 days after infestation.
Setting [6] is: application rate 200 ppm, feeding/contact, mixed ages, 6 days after infestation, read-out: mortality.

For `CCS(=O)(=O)c1cc(Br)cnc1-c1ncc2c(OCC(F)(F)C(F)(F)F)nccn12` [Compound P4, 3-(5-bromo-3-ethylsulfonyl-2-pyridyl)-8-(2,2,3,3,3-pentafluoropropoxy)imi-dazo[1,5-a]pyrazine], the percent control (mortality or growth inhibition) at 200 ppm in test [1] and in test [2] was at least 80% each time. Also, the mortality (commonly the share of the test organisms that died) at 200 ppm in test [3] was at least 80%. In test [4], the percent control (mortality, anti-feedant effect or growth inhibition) at 200 ppm was at least 80%.
Consider `CCSc1cccnc1-c1ncc2c(OCC(F)(F)C(F)F)nccn12` [Compound P5], for which the percent control (mortality or growth inhibition) at 200 ppm in test [1] and in test [2] was at least 80% each time. The mortality at 200 ppm in test [3] is at least 80%. The percent control (mortality, anti-feedant effect or growth inhibition) at 200 ppm in test [4] was at least 80%.
With `CCSc1cccnc1-c1ncc2c(OCC(F)(F)C(F)(F)F)nccn12` [Compound P7, 3-(3-ethylsulfanyl-2-pyridyl)-8-(2,2,3,3,3-pentafluoropropoxy)imi-dazo[1,5-a]pyrazine], the percent control (mortality or growth inhibition) at 200 ppm in test [1] and in test [2] was at least 80% each time. The mortality at 200 ppm in test [3] is at least 80%.
Regarding `CCS(=O)(=O)c1ccc(NC(=O)NC)nc1-c1ncc2c(OCC(F)(F)C(F)(F)F)nccn12` [Compound P9, 1-[5-ethylsulfonyl-6-[8-(2,2,3,3,3-penta-fluoropropoxy)imidazo [1,5-a]pyrazin-3-yl]-2-pyridyl]-3-methyl-urea], the percent effect (mortality or growth inhibition) at 200 ppm in test [1] and in test [2] was at least 80% in each case.
For `CCSc1cc(Oc2ccccn2)cnc1-c1ncc2c(OCC(F)(F)C(F)(F)F)nccn12` [Compound P20, 3-[3-ethylsulfanyl-5-(2-pyridyloxy)-2-pyridyl]-8-(2,2,3,3,3-penta-fluoropropoxy)imidazo [1,5-a]pyrazine], the percent effect (mortality or growth inhibition) at 200 ppm in test [1] and in test [2] was at least 80% each time. For the same compound, in test [4] (setting [5]), the percent control (mortality, anti-feedant effect or growth inhibition) at 200 ppm was at least 80%.
On to `CCSc1cc(C2CC2)cnc1-c1ncc2c(OCC(F)(F)C(F)(F)F)nccn12` [Compound P22, 3-(5-cyclopropyl-3-ethylsulfanyl-2-pyridyl)-8-(2,2,3,3,3-penta-fluoropropoxy)imidazo [1,5-a]pyrazine], for which the percent effect (mortality or growth inhibition) at 200 ppm in test [1] and in test [2] was at least 80% each time. The percent control (mortality, anti-feedant effect or growth inhibition) at 200 ppm in test [4] (setting [5]) is at least 80%.
For the compound `CCS(=O)(=O)c1ccc(Cl)nc1-c1ncc2c(OCC(F)(F)C(F)(F)F)cccn12` [Compound P30, 3-(6-chloro-3-ethylsulfonyl-2-pyridyl)-8-(2,2,3,3,3-pentafluoropropoxy)imi-dazo[1,5-a]pyridine], the percent control (mortality or growth inhibition) at 200 ppm in test [2] was at least 80%. Besides, the percent control (mortality, anti-feedant effect or growth inhibition) at 200 ppm in test [4] was at least 80%.
Take `CCS(=O)(=O)c1ccc(-n2cncn2)nc1-c1ncc2c(OCC(F)(F)C(F)(F)F)cccn12` [Compound P33, 3-[3-ethylsulfonyl-6-(1,2,4-triazol-1-yl)-2-pyridyl]-8-(2,2,3,3,3-pentafluoropropoxy)imi dazo[1,5-a]pyri-dine]: the percent control (mortality or growth inhibition) at 200 ppm in test [1] and in test [2] was at least 80% each time. The percent control (mortality, anti-feedant effect or growth inhibition) at 200 ppm in test [4] is at least 80%.
As for `CCS(=O)(=O)c1ccc(N(C)C(C)=O)nc1-c1ncc2c(OCC(F)(F)C(F)(F)F)cccn12` [Compound P37, N-[5-ethylsulfonyl-6-[8-(2,2,3,3,3-penta-fluoropropoxy)imidazo [1,5-a]pyridin-3-yl]-2-pyridyl]-N-methyl-acetamide], the percent effect (mortality or growth inhibition) at 200 ppm in test [1] and in test [2] was at least 80% throughout. Further, the mortality at 200 ppm in test [3] (setting [6]) was at least 80%.
Consider `CCS(=O)(=O)c1ccc(N(C)C(=O)C2CC2)nc1-c1ncc2c(OCC(F)(F)C(F)(F)F)cccn12` [Compound P38, N-[5-ethylsulfonyl-6-[8-(2,2,3,3,3-penta-fluoropropoxy)imidazo [1,5-a]pyridin-3-yl]-2-pyridyl]-N-methyl-cyclopropanecarboxamide], for which the percent effect (mortality or growth inhibition) at 200 ppm in test [1] and in test [2] was at least 80% each time. In test [4] (setting [5]), the percent control (mortality, anti-feedant effect or growth inhibition) at 200 ppm is at least 80%.
On to `CCS(=O)(=O)c1cc(C2CC2)cnc1-c1ncc2c(OCC(F)(F)C(F)(F)F)cccn12` [Compound P40, 3-(5-cyclopropyl-3-ethylsulfonyl-2-pyridyl)-8-(2,2,3,3,3-penta-fluoropropoxy)imidazo [1,5-a]pyridine], for which the percent effect (mortality or growth inhibition) at 200 ppm in test [1] and in test [2] was at least 80% in each case. In test [3] (setting [6]), the mortality at 200 ppm is at least 80%.
In the case of `CCSc1cc(N(C)C(C)=O)cnc1-c1ncc2c(OCC(F)(F)C(F)(F)F)cccn12` [Compound P41, N-[5-ethylsulfanyl-6-[8-(2,2,3,3,3-penta-fluoropropoxy)imidazo [1,5-a]pyridin-3-yl]-3-pyridyl]-N-methyl-acetamide], the percent effect (mortality or growth inhibition) at 200 ppm in test [2] is at least 80%.
`CCSc1cc(C2CC2)cnc1-c1ncc2c(OCC(F)(F)C(F)(F)F)cccn12` [Compound P42, 3-(5-cyclopropyl-3-ethylsulfanyl-2-pyridyl)-8-(2,2,3,3,3-penta-fluoropropoxy)imidazo [1,5-a]pyridine]: the percent effect (mortality or growth inhibition) at 200 ppm in test [1] and in test [2] was at least 80% throughout.
On to `CCS(=O)(=O)c1cc(Br)cnc1-c1ncc2c(OCC(F)(F)C(F)(F)F)cccn12` [Compound P43, 3-(5-bromo-3-ethylsulfonyl-2-pyridyl)-8-(2,2,3,3,3-pentafluoropropoxy)imi-dazo[1,5-a]pyridine], for which the percent control (mortality or growth inhibition) at 200 ppm in test [1] and in test [2] was at least 80% in each case.
As to `CCSc1cc(C(C)(C)C#N)cnc1-c1ncc2c(OCC(F)(F)C(F)(F)F)cccn12` [Compound P46, 2-[5-ethylsulfanyl-6-[8-(2,2,3,3,3-penta-fluoropropoxy)imidazo [1,5-a]pyridin-3-yl]-3-pyridyl]-2-methyl-propanenitrile], the percent effect (mortality or growth inhibition) at 200 ppm in test [2] is at least 80%.
On to `CCS(=N)(=O)c1cc(OC(C)(C)C#N)cnc1-c1ncc2c(OCC(F)(F)C(F)(F)F)cccn12` (stereo not shown) [Compound P49, 2-[[5-(ethylsulfonimidoyl)-6-[8-(2,2,3,3,3-penta-fluoropropoxy)imidazo [1,5-a]pyridin-3-yl]-3-pyridyl]oxy]-2-methyl-propanenitrile], for which the percent effect (mortality or growth inhibition) at 200 ppm in test [1] and in test [2] was at least 80% each time.
Take `CCSc1cc(C2(C#N)CC2)cnc1-c1ncc2c(OCC(F)(F)C(F)(F)F)cccn12` [Compound P53, 1-[5-ethylsulfanyl-6-[8-(2,2,3,3,3-penta-fluoropropxoy)imidazo [1,5-a]pyridin-3-yl]-3-pyridyl]cyclopropane-carbonitrile]: the percent effect (mortality or growth inhibition) at 200 ppm in test [1] and in test [2] was at least 80% each time.

Source of the values: patent publication US20220061324A1, “PESTICIDALLY ACTIVE HETEROCYCLIC DERIVATIVES WITH SULFUR CONTAINING SUBSTITUENTS” (SYNGENTA CROP PROTECTION AG, priority 2018, published 2022).
